Common to all, as to type: cell-based
Experiment [1] deals with Staphylococcus aureus NRS384 (MRSA). Description: Broth microdilution MIC, S. aureus NRS384 (MRSA). Particulars: Staphylococcus aureus; broth microdilution, 37° C., 20 hours; read-out: MIC NRS 384 (MRSA). An excerpt: (§1) Bacteria tested are Staphylococcus aureus NRS384 (a methicillin-resistant Staphylococcus aureus, MRSA), Staphylococcus aureus ATCC 29213 (a methicillin-sensitive Staphylococcus aureus, MSSA), Streptococcus pneumoniae ATCC 49619, Enterococcus faecalis ATCC 29212, Enterococcus faecium ATCC 700221 (a vancomycin-resistant enterococcus, VRE), Bacillus subtilis ATCC 6633, and Escherichia coli ATCC 25922.
(§2) Staphylococcus aureus NRS384 was obtained from NARSA (Network on Antimicrobial Resistance in Staphylococcus aureus, now the strain collection is in BEI resources). Other bacterial isolates were from ATCC (The American Type Culture Collection). Upon receiving the bacteria samples from aforementioned institutes, the bacteria were cultured according to the manuals provided by the suppliers. The bacteria were stored in 25% glycerol (final concentration) at −80° C.
(§3) On the day of testing, the compounds were dissolved in pure DMSO (Sigma 276855-1L) to […] as stock. In a v-bottom 96-well plate (Axygen-wipp02280), 20 μl DMSO was added into well 2 to well 12 by manual pipetting. Into well 1, 12.8 μL of compound DMSO stock (20 mg/ml) was added and mixed with 27.2 μl DMSO by pipetting. Two fold serial dilutions were performed by transferring and mixing 20 μl of solution from well 1 to well 2, then well 2 to well 3 and so forth until well 11. The well 12 was loaded with 20 μl DMSO without compounds. This was drug ‘mother plate’. From well 1 to well 12, the drug concentrations in the mother plate were […] in DMSO. A multi-pipette was used to perform the serial dilutions. The concentration may be adjusted according to the potency of the compounds. An Echo® Acoustic liquid handling system may be used to replace manual pipetting to make the daughter plates.
(§4) One day prior to the day of MIC testing, bacterial strains were streaked out from −80° C. glycerol stocks onto MHA plates and incubated at 37° C. for 20 hours. Streptococcus pneumoniae was streaked on blood agar and incubated at 37° C. in 5% CO2. The single colonies were picked by using an inoculation loop (Greiner-731175) and suspended into 5 ml sterile saline. The turbidity of the suspension was adjusted to 0.10 (Siemens MicroScan turbidity meter), equal to ˜1.0×10^8 cfu/ml. The bacterial suspension was diluted 200× in corresponding test medium (Table 1). This was used to inoculate daughter plates.
(§5) For preparing u-bottom 96-well ‘daughter plates’ (Costar 3788), an aliquot of 1 μl solution from mother plate was then replicating transferred into the daughter plate using a multi-pipette.
(§6) An aliquot of 99 μl of the bacterial suspension was inoculated into each well of the daughter plates using a multi-pipette. Each well contained ˜5.0×10^5 cfu/ml bacteria, 1% DMSO and serially diluted compounds at 64, 32, 16, 8, 4, 2, 1, 0.5, 0.25, 0.125, 0.0625 and 0 μg/ml from well 1 to well 12 respectively, in 100 μl corresponding test medium.
(§7) The plates were incubated in ambient atmosphere and in a 37° C. incubator for 20 hours.
(§8) Compounds of the present invention were tested for antibacterial activity against a variety of bacterial organism including Bacillus subtilis, Staphylococcus aureus, Enterococcus faecalis, Enterococcus faecium, Streptococcus pneumoniae and Escherichia coli. […] Compounds described in Examples 2, 44, 53, 56, 90, 134, 212, 213, 214, 218, 222, 304, 305, and 307 had MIC of ≤1 μg/ml against S. aureus NRS 384 (MRSA) (μg/ml) and E. faecium ATCC 700221 (VRE) (μg/ml).
Background: Dilution methods test growth across graded concentrations, often in twofold steps.

Experiment [2] concerns Staphylococcus aureus ATCC 29213 (MSSA). Description: Broth microdilution MIC, S. aureus ATCC 29213 (MSSA). Particulars: broth microdilution, 37° C., 20 hours, read-out: MIC S. aureus ATCC 29213 (MSSA).
Description: as §1, §2, §3, §4, §5, §6, §7, §8

The subject of experiment [3] is Enterococcus faecalis ATCC 29212. Nature of the experiment: Broth microdilution MIC, E. faecalis ATCC 29212. Particulars: ATCC29212, broth microdilution, 37° C., 20 hours, read-out: MIC E. faecalis ATCC 29212.
Description: as §1, §2, §3, §4, §5, §6, §7, §8

The subject of experiment [4] is Enterococcus faecium ATCC 700221 (VRE). Nature of the experiment: Broth microdilution MIC, E. faecium ATCC 700221 (VRE). The following applies: Enterococcus faecium; broth microdilution, 37° C., 20 hours; read-out: MIC E. faecium ATCC 700221 (VRE).
Description: as §1, §2, §3, §4, §5, §6, §7, §8

For experiment [5], the system named is Streptococcus pneumoniae ATCC 49619. Nature of the experiment: Broth microdilution MIC, S. pneumoniae ATCC 49619. Particulars: ATCC49619, broth microdilution, 37° C., 20 hours, read-out: MIC S. pneumoniae ATCC 49619.
Description: as §1, §2, §3, §4, §5, §6, §7, §8

Experiment [6] relates to Bacillus subtilis ATCC 6633. Description: Broth microdilution MIC, B. subtilis ATCC 6633. Particulars: ATCC6633, broth microdilution, 37° C., 20 hours, read-out: MIC B. subtilis ATCC 6633.
Description: as §1, §2, §3, §4, §5, §6, §7, §8

Experiment [7] has as its system Escherichia coli ATCC 25922. Nature of the experiment: Broth microdilution MIC, E. coli ATCC 25922 (MHIIB w & w/o 4 mM EDTA). The following applies: broth microdilution, 37° C., 20 hours; for MIC: Escherichia coli, ATCC25922, without EDTA, read-out: MIC E. coli ATCC 25922; for MIC E. coli ATCC 25922 + 4 mM EDTA: with 4 mM EDTA.
Description: as §1, §2, §3, §4, §5, §6, §7, §8

≈ marks a conversion by molar mass, not a printed value. A value given as a limit tells only on which side of the number the result lay.

As usually defined, the MIC is the least concentration at which growth counts as inhibited.

`Cn1ncc2nc(NCc3cscn3)[nH]c(=O)c21` [Compound 15, 1-Methyl-5-((thiazol-4-ylmethyl)amino)-1H-pyrazolo[4,3-d]pyrimidin-7(6H)-one]: the minimal inhibitory concentration (MIC) in experiment [1], in experiment [2], in experiment [3], in experiment [4], in experiment [5] and in experiment [6] was > 64 µg/mL each time. Further, the MIC in experiment [7] is > 64 µg/mL. For the same compound, the “MIC E. coli ATCC 25922 + 4 mM EDTA” value in experiment [7] was >64 µg/mL.
`Cn1ncc2nc(NCc3cc[nH]n3)[nH]c(=O)c21` [Compound 16, 5-(((1H-pyrazol-3-yl)methyl)amino)-1-methyl-1H-pyrazolo[4,3-d]pyrimidin-7(6H)-one]: the minimal inhibitory concentration (MIC) in experiment [1], in experiment [2], in experiment [3], in experiment [4], in experiment [5] and in experiment [6] was > 64 µg/mL throughout. In addition, in experiment [7], the MIC was > 64 µg/mL. In addition, the “MIC E. coli ATCC 25922 + 4 mM EDTA” value in experiment [7] was >64 µg/mL.
`Cn1ncc2nc(NCc3cn[nH]n3)[nH]c(=O)c21` [Compound 17, 5-(((2H-1,2,3-triazol-4-yl)methyl)amino)-1-methyl-1H-pyrazolo[4,3-d]pyrimidin-7(6H)-one]: the MIC in experiment [1], in experiment [2], in experiment [3], in experiment [4], in experiment [5] and in experiment [6] was > 64 µg/mL throughout. Also, the MIC in experiment [7] is > 64 µg/mL. Moreover, the “MIC E. coli ATCC 25922 + 4 mM EDTA” value in experiment [7] was >64 µg/mL.
Regarding `Cn1ncc2nc(NCc3nc4ccccc4s3)[nH]c(=O)c21` [Compound 18, 5-((Benzo[d]thiazol-2-ylmethyl)amino)-1-methyl-1H-pyrazolo[4,3-d]pyrimidin-7(6H)-one], the minimal inhibitory concentration (MIC) in experiment [1], in experiment [2], in experiment [3], in experiment [4], in experiment [5] and in experiment [6] was > 64 µg/mL throughout. Also, in experiment [7], the MIC is > 64 µg/mL. Also, the “MIC E. coli ATCC 25922 + 4 mM EDTA” value in experiment [7] is >64 µg/mL.
With `Cn1ncc2nc(NCc3ccc4[nH]cnc4c3)[nH]c(=O)c21` [Compound 19, 5-(((1H-benzo[d]imidazol-5-yl)methyl)amino)-1-methyl-1H-pyrazolo[4,3-d]pyrimidin-7(6H)-one], the MIC in experiment [1], in experiment [2], in experiment [3], in experiment [4], in experiment [5] and in experiment [6] was > 64 µg/mL throughout. Moreover, the MIC in experiment [7] is > 64 µg/mL. Also, the “MIC E. coli ATCC 25922 + 4 mM EDTA” value in experiment [7] is >64 µg/mL.
`Cn1ncc2nc(NCc3cncs3)[nH]c(=O)c21` [Compound 20, 1-Methyl-5-((thiazol-5-ylmethyl)amino)-1H-pyrazolo[4,3-d]pyrimidin-7(6H)-one]: the MIC in experiment [1], in experiment [2], in experiment [3], in experiment [4], in experiment [5] and in experiment [6] was > 64 µg/mL in each case. For the same compound, in experiment [7], the MIC is > 64 µg/mL. In experiment [7], the “MIC E. coli ATCC 25922 + 4 mM EDTA” value was >64 µg/mL.
In the case of `Cn1ncc2nc(NCc3cnco3)[nH]c(=O)c21` [Compound 21, 1-Methyl-5-((oxazol-5-ylmethyl)amino)-1H-pyrazolo[4,3-d]pyrimidin-7(6H)-one], the MIC in experiment [1], in experiment [2], in experiment [3], in experiment [4], in experiment [5] and in experiment [6] was > 64 µg/mL throughout. The MIC in experiment [7] is > 64 µg/mL. The “MIC E. coli ATCC 25922 + 4 mM EDTA” value in experiment [7] was >64 µg/mL.
For the compound `Cn1ncc2nc(NCc3ncc[nH]3)[nH]c(=O)c21` [Compound 22, 5-(((1H-imidazol-2-yl)methyl)amino)-1-methyl-1H-pyrazolo[4,3-d]pyrimidin-7(6H)-one], the minimal inhibitory concentration (MIC) in experiment [1], in experiment [2], in experiment [3], in experiment [4], in experiment [5] and in experiment [6] was > 64 µg/mL throughout. Moreover, the MIC in experiment [7] was > 64 µg/mL. Further, the “MIC E. coli ATCC 25922 + 4 mM EDTA” value in experiment [7] was >64 µg/mL.
Consider `Cn1ncc2nc(NCc3cccnn3)[nH]c(=O)c21` [Compound 23, 1-Methyl-5-((pyridazin-3-ylmethyl)amino)-1H-pyrazolo[4,3-d]pyrimidin-7(6H)-one], for which the MIC in experiment [1], in experiment [2], in experiment [3], in experiment [4], in experiment [5] and in experiment [6] was > 64 µg/mL in each case. In addition, in experiment [7], the MIC was > 64 µg/mL. Further, the “MIC E. coli ATCC 25922 + 4 mM EDTA” value in experiment [7] is >64 µg/mL.
Regarding `Cn1ncc2nc(NCc3ccc(F)c(Cl)c3)[nH]c(=O)c21` [Compound 24, 5-((3-Chloro-4-fluorobenzyl)amino)-1-methyl-1H-pyrazolo[4,3-d]pyrimidin-7(6H)-one], the MIC in experiment [1] is 8 µg/mL (≈ 26 µM); in experiment [2] it was 8 µg/mL (≈ 26 µM); in experiment [3], > 64 µg/mL; in experiment [4], 8 µg/mL (≈ 26 µM); in experiment [5], 4 µg/mL (≈ 13 µM); in experiment [6], 8 µg/mL (≈ 26 µM). In experiment [7], the minimum inhibitory concentration (MIC) was > 64 µg/mL. Moreover, the “MIC E. coli ATCC 25922 + 4 mM EDTA” value in experiment [7] is >64 µg/mL.
On to `Cn1ncc2nc(NCc3ccc(Cl)cc3)[nH]c(=O)c21` [Compound 25, 5-((4-chlorobenzyl)amino)-1-methyl-1H-pyrazolo[4,3-d]pyrimidin-7(6H)-one], for which the minimal inhibitory concentration (MIC) was found to be 8 µg/mL (≈ 27.6 µM) in experiment [1]; 8 µg/mL (≈ 27.6 µM) in experiment [2]; 16 µg/mL (≈ 55.2 µM) in experiment [3]; 16 µg/mL (≈ 55.2 µM) in experiment [4]; 4 µg/mL (≈ 13.8 µM) in experiment [5]; 8 µg/mL (≈ 27.6 µM) in experiment [6]. The minimum inhibitory concentration (MIC) in experiment [7] is > 64 µg/mL. Besides, in experiment [7], the “MIC E. coli ATCC 25922 + 4 mM EDTA” value is 64 µg/mL.
Take `Cn1ncc2nc(NCc3cccc(Cl)c3)[nH]c(=O)c21` [Compound 26, 5-((3-Chlorobenzyl)amino)-1-methyl-1H-pyrazolo[4,3-d]pyrimidin-7(6H)-one]: the MIC in experiment [1] was 32 µg/mL (≈ 110 µM); in experiment [2] it was 32 µg/mL (≈ 110 µM); in experiment [3], 64 µg/mL (≈ 221 µM); in experiment [4], 32 µg/mL (≈ 110 µM); in experiment [5], 16 µg/mL (≈ 55.2 µM); in experiment [6], 16 µg/mL (≈ 55.2 µM). Moreover, the minimal inhibitory concentration (MIC) in experiment [7] is > 64 µg/mL. In addition, in experiment [7], the “MIC E. coli ATCC 25922 + 4 mM EDTA” value turned out to be 64 µg/mL.

The record behind these values is patent US10723741B1, “DNA polymerase IIIC inhibitors and use thereof” (Acurx Pharmaceuticals, LLC, priority 2018, dated 2020).
